How the values were obtained:
in vivo = conditions: mouse
Experimental: The acute toxicity of the products of the invention was determined on groups of 20 Swiss OF1 mice weighing 22 to 24 grams by intravenous route.

cornea of the rabbit = assay: Local anaesthetic activity on contact, rabbit cornea (derived from Regnier); assay type: in vivo, rabbit (male albino); conditions: for Local anaesthetic activity: effect compared with lidocaine: 1% solution, relative to lidocaine hydrochloride at identical concentration, rabbit cornea; for local anaesthesia/lidocaine hydrochloride index: relative index I from activity and relative toxicity, calculated in mmoles
Experimental: The local anaesthetic activity on contact is determined on the cornea of the rabbit according to a method derived from the technique of Regnier (Regnier J. R. Salle P. Bull. Soc. Pharmacol. 1926 33, 91).
Male albino rabbits weighing 2 to 3 kg are used in groups of 5. The product solution to be tested is injected in a volume of 0.2 ml into the conjunctival sac. The cornea is then stimulated by means of a hair 3, 6, 10, 15, 20, 25, 45 and 60 minutes after injection.
The local anaesthetic activity is thus expressed in relation to this reference product.

rat duodenum = assay: Spasmolytic activity in vitro against barium chloride, isolated rat duodenum; conditions: for Spasmolytic activity compared with papaverine hydrochloride / spasmolytic index/papaverine hydrochloride: rat duodenum; for Spasmolytic activity compared with papaverine hydrochloride: BaCl2 50 mg/l, relative EC50 comparison; for spasmolytic index/papaverine hydrochloride: relative index I from activity and relative toxicity, calculated in mmoles; for relative index of spasmolytic activity compared with papaverine: summary statement, times higher than the reference
Experimental: (§1) The spasmolytic activity of the products was studied in vitro with regard to two distinct agonists, namely:
(§2) The organ fragments were kept alive in a tank containing a solution of Tyrode (37° C., pH 7.2, oxygenated by the mixture O2 /CO2, 95%/5%).
(§3) The isotonic contractions were recorded graphically on a physiograph by means of a transducer. […] The values obtained are compared with those of spasmolytic agents selected as reference and are determined under the same experimental conditions, namely:
papaverine hydrochloride for the convulsant effect of barium chloride;

guinea-pig ileum = assay: Spasmolytic activity in vitro against nicotine, isolated guinea-pig ileum; conditions: for Spasmolytic activity compared with hexamethonium dibromide: nicotine 1 mg/l, relative EC50 comparison; for spasmolytic index/hexamethonium dibromide: relative index I from activity and relative toxicity, calculated in mmoles
Experimental: as §1, §2, §3
hexamethonium dibromide for the convulsant effect of nicotine (table V).

[1] = test system: inflammation in the paw of the rat; assay: Analgesic activity, brewer's yeast paw inflammation pressure test (derived from Randall and Selito); assay type: in vivo, rat (male Sprague-Dawley); conditions: 100 mg/kg oral, 1 hour after administration
Experimental: The analgesic activity of the products was studied on male Sprague-Dawley rats in groups of 15 by a method derived from that of Randall and Selito (Arch. Int. Pharmacodyn. 1957 (III) page 409). This method consists in causing a painful inflammation in the paw of the rat by injecting 0.1 ml of a 20% brewer's yeast solution, then applying a pressure to the inflammation and determining the value of the pressure at which a painful reaction of the animal appears.
The activity of the products was studied after 1 hour of administration by oral route at the rate of one dose of 100 mg/kg in comparison with untreated animals. In this test aspirin was chosen as reference substance.
The analgesic effect of the products is expressed by the percentage increase of the pressure endured by the treated animals in relation to that endured by the untreated animals.
The results of the analgesic activity of the product tested are expressed in relation to the activity of aspirin administered by oral route at a dose of 100 mg/kg.

[2] = reference substances, mice, intravenous

Structure (SMILES) | LD50 at 192 h (in vivo; iv) [mg/kg] | Local anaesthetic activity: effect compared with lidocaine (cornea of the rabbit) | local anaesthesia/lidocaine hydrochloride index (cornea of the rabbit) | Spasmolytic activity compared with papaverine hydrochloride (rat duodenum) | spasmolytic index/papaverine hydrochloride (rat duodenum) | Spasmolytic activity compared with hexamethonium dibromide (guinea-pig ileum) | spasmolytic index/hexamethonium dibromide (guinea-pig ileum) | Analgesic activity in relation to aspirin [1] | relative index of spasmolytic activity compared with papaverine (rat duodenum) | LD50 at 192 h (in vivo; [2]) [mg/kg]
CCC(COCc1ccc(OC)c(OC)c1)(c1ccccc1)N(C)C (stereo not drawn) [Example 1, 1-[(3,4-dimethoxy)benzyloxymethyl]-1-phenyl-N,N-dimethyl-n-propylamine] | 30 | 1.6 | 1.52 | 2.7 | 2.45 | 0.9 | 1.29 | 1 | – | –
CCC(COCc1cc(OC)c(OC)c(OC)c1)(c1ccccc1)N(C)C (stereo not drawn) [Example 2, 1-[(3,4,5-trimethoxy)benzyloxymethyl]-1-phenyl-N,N-dimethyl-n-propylamine] | 42 | 2.2 | 2.95 | 5.4 | 6.90 | 1.2 | 2.42 | – | up to seven | –
CCC(COCc1ccccc1)(c1ccccc1)N(C)C (stereo not drawn) [Example 3, 1-Benzyloxymethyl-1-phenyl-N,N-dimethyl-n-propylamine] | 41.4 | 1.4 | 1.85 | 0.9 | 1.125 | 3.4 | 6.69 | – | – | –
CCCCOCC(CC)(c1ccccc1)N(C)C (stereo not drawn) [Example 4] | 26.8 | – | – | – | – | – | – | – | – | –
CCCCCCCCCCOCC(CC)(c1ccccc1)N(C)C (stereo not drawn) [Example 5] | 37 | – | – | 0.5 | 0.56 | 2.2 | 3.85 | 2.5 | – | –
CCC(COCc1ccc(C)cc1)(c1ccccc1)N(C)C (stereo not drawn) [Example 6] | 48.6 | – | – | – | – | – | – | – | – | –
CCC(COc1ccccn1)(c1ccccc1)N(C)C (stereo not drawn) [Example 7] | 37 | 1.1 | 1.30 | 1.7 | 1.89 | 1.0 | 1.75 | – | – | –
CCC(COCc1ccccn1)(c1ccccc1)N(C)C (stereo not drawn) [Example 9] | 39 | 0.7 | 0.875 | 0.4 | 0.475 | 1.4 | 2.62 | – | – | –
CCC(COCc1cccnc1)(c1ccccc1)N(C)C (stereo not drawn) [Example 10] | 43 | – | – | 0.4 | 0.525 | 1.7 | 3.50 | 1.8 | – | –
CCC(CN(C)C)(OCc1cc(OC)c(OC)c(OC)c1)c1ccccc1 (stereo not drawn) [Example 11, 2-[(3,4,5-trimethoxy)benzyloxy]-2-phenyl-N,N-dimethyl-n-butylamine] | 46.7 | 1.0 | 1.49 | 1.9 | 2.69 | 2.6 | 5.76 | 2.3 | – | –
CCC(COCc1cc(OC)c(OC)c(OC)c1)(NC)c1ccccc1 (stereo not drawn) [Example 12, 1-[(3,4,5-trimethoxy)benzyloxymethyl]-1-phenyl-N-methyl-n-propylamine] | 34 | 1.7 | 1.84 | 1.2 | 1.24 | 2.3 | 4.09 | – | – | –
COc1ccc(C(C)(COCc2ccc(Cl)cc2)N(C)C)cc1 (stereo not drawn) [Example 13] | 48.4 | 1.1 | 1.71 | – | – | – | – | – | – | –
Cc1ccc(COCC(C)(c2ccc(Cl)c(Cl)c2)N(C)C)cc1 (stereo not drawn) [Example 15] | 160 | – | – | – | – | – | – | – | – | –
COc1ccc(CC(C)(N)COCc2ccccc2)cc1OC (stereo not drawn) [Example 17, 1-Benzyloxymethyl-1-methyl-(3,4-dimethoxy)-phenethyl-amine] | 51.6 | – | – | – | – | – | – | – | – | –
COc1ccc(CC(C)(COCc2ccccc2)N(C)C)cc1OC (stereo not drawn) [Example 18] | 27.3 | – | – | – | – | – | – | – | – | –
COc1ccc(CCC(C)(COCc2cc(OC)c(OC)c(OC)c2)N(C)C)cc1OC (stereo not drawn) [Example 19] | 30.7 | 0.95 | 0.92 | – | – | – | – | – | – | –
CCC(COc1ccc(OC)cc1)(c1ccccc1)N(C)C (stereo not drawn) [Example 21, 1-[(4-methoxy)phenoxymethyl]-1-phenyl-N,N-dimethyl-n-propylamine] | 140 | 0.45 | 2.00 | 1.7 | 7.28 | 1.7 | 11.33 | – | up to seven | –
CCC(CN(C)C)(Oc1ccc(OC)cc1)c1ccccc1 (stereo not drawn) [Example 22, 2-[(4-methoxy)phenoxy]-2-phenyl-N,N-dimethyl-n-butylamine] | 59.6 | – | – | – | – | – | – | – | – | –
CC(=O)Oc1ccccc1C(=O)O [aspirin, reference compound] | – | – | – | – | – | – | – | 1 | – | –
C[N+](C)(C)CCCCCC[N+](C)(C)C [hexamethonium, reference compound] | – | – | – | – | – | – | – | – | – | 21
COc1ccc(Cc2nccc3cc(OC)c(OC)cc23)cc1OC [papaverine, reference compound] | – | – | – | – | – | – | – | – | – | 33.1

From patent US4301163A, “Amino-ether oxides and use thereof in therapy” (priority 1979, dated 1981)
